Columns and labels:
CYP3A4 = target: T1, CYP3A4 (Homo sapiens, UniProt P08684); assay: CYP3A4 inhibitory in vitro assay (fluorometric inhibitor screening kit); assay type: biochemical; conditions: for inhibition at 150 µM: Concentration 150 (unit inferred); for inhibition at 200 µM: Concentration 200 (unit inferred)
T1 construct: purchased BioVision Inc. K702-200
Description: Briefly, incubations were conducted in a reaction volume of 200 μl/well in a 96-well microliter plate. For the calibration curve, resorufin (standard) was plotted by taking different concentrations (0, 4, 8, 12, 16, 20, 30, and 40 µl) of the 1 pmol/μl of the standard available in the kit. One mole of resorufin corresponds to the metabolism of 1 mol of the CYP3A4 substrate. […] The corresponding percentage inhibition due to the test ligand or positive inhibition control was calculated. CYP3A4 activities observed with punicalagin at varying concentrations (50,100, 150, 200, 250, and 300 µM) were noted down ([Hidaka et al., 2005]; [Faria et al., 2007]). The concentration at which 50% of the CYP3A4 activity is inhibited (IC50) was noted down. The logarithm values were plotted onto the graphs. Each compound was tested in triplicates. Inhibition curves were plotted from the log values of the concentration of the samples vs. the percentage inhibition calculated.

[1] = Pharmacokinetics of TAC in Wistar rats with and without oral PRE (LC-MS/MS of plasma); assay type: in vivo
Description: The assessment of TAC in all the samples was done with the help of the LC-MS/MS method. Samples were prepared following the method stated by [Shokati et al. (2015)]. After the preparation of samples, the supernatant was then used further for investigation. An aliquot of 10 μL was injected into the LC-MS/MS system. The column used for analysis was Eclipse XDB C-18 with 100 mm × […] × 3.5 um) with a flow rate of 1.5 ml/min (LC flow split to MS as 0.45 ml/min). The mobile phase used was a mixture of solvent A (acetonitrile) and solvent B (ammonium acetate in water) including 0.1% formic acid in a ratio of 95:05 v/v with a run time of 2 min isocratic (Supplementary Table S2. The compounds were detected by tandem mass spectrometry using electrospray ionization in the positive mode and using ion transitions m/z 821.5 -> 768.0 for TAC (standard) and m/z 721.1 -> 296.1 for ritonavir (internal standard).
Extraction of the drug from the plasma was carried out by the precipitation method. An aliquot of drug-free plasma spiked with 50 μl of ZnSO4 solution and 300 μl of methanol/acetonitrile (50:50, v/v) including IS was added. The mixture was vortex mixed for 30 s and centrifuged at 14,000 g (2000 rpm) at […] for 5 min. The supernatant solution was separated and filtered through a 0.45-µ membrane filter and stored at −20°C until use for analysis. The aforementioned extraction procedure was followed for all plasma samples, calibration curve samples, and QC samples. The optimization of the extraction procedure was required to reduce variation in the area of IS and improve injection to injection reproducibility. The schematic flow chart for the extraction procedure is depicted in Figure 1.
TAC (3 mg/kg) was administered orally to experimental rats (N = 6), and in another group, PRE at a dosage of 200 mg/kg was orally co-administered with TAC dosage of 3 mg/kg in a similar manner to six rats. Both groups were given a volume of 10 ml/kg which was a single dose to all animals. Blood samples were drawn at regular intervals, and the blood plasma concentration of TAC was assessed with the help of the validated LC-MS/MS technique ([Sattler et al., 1992]; [Alanbaki et al., 2019]).
Pretreatment of PRE (200 mg/kg) for a period of six consecutive days was done in group 2, and afterward, on the 7th day, in group 2, PRE (200 mg/kg) was co-administered with TAC (3 mg/kg) to experimental animals (N = 6). In group 1, a single dose of TAC (3 mg/kg) was administered to the animals at a volume of 10 ml/kg body weight.
To study the dose–effect relationship, the Wistar rats were equally distributed into five groups (N = 6 rats/group). PRE at a dose of 100, 200, 400, and 800 mg/kg was given by oral route to the rats, co-administrated with TAC (3 mg/kg). The drug TAC at a dose of 3 mg/kg was given similarly to all the rats in another group, with a volume of 10 ml/kg body weight. Blood was collected from the retro-orbital plexus, and the plasma samples were separated.
The experimental animals were fasted for 12 h before the collection of blood. A total of 300 μL of blood were collected in Eppendorf tubes containing heparinized solution at different time intervals (0, 0.5, 1.0, 2.0, 4.0, 8.0, 12, and 24 h). Plasma was separated and approximately 100 μl of samples was pipetted in the tubes (Figure 2). A total of 300 μl of methanol/acetonitrile (50:50, v/v) and 50 μl of ZnSO4 solution were added, and the solution was vortexed for 30 s and centrifuged at 14,000 g (2000 rpm) for 10 min (Figure 2). All the samples were stored at −20°C until further analysis ([Anlamlert and Sermsappasuk, 2020]).
Pharmacokinetic parameters such as time to reach the maximum concentration (Tmax) and Cmax of TAC were read from the […] (observed blood concentration vs. time profile). AUC0-12 was calculated with the help of a linear trapezoidal rule (Drug and Statistics (DAS) software version 2.1.1). […]

[2] = human, probe kit CYP3A4 substrate metabolised to resorufin (not named), read-out: % Relative Inhibition

T1 sequence (P08684 whole entry): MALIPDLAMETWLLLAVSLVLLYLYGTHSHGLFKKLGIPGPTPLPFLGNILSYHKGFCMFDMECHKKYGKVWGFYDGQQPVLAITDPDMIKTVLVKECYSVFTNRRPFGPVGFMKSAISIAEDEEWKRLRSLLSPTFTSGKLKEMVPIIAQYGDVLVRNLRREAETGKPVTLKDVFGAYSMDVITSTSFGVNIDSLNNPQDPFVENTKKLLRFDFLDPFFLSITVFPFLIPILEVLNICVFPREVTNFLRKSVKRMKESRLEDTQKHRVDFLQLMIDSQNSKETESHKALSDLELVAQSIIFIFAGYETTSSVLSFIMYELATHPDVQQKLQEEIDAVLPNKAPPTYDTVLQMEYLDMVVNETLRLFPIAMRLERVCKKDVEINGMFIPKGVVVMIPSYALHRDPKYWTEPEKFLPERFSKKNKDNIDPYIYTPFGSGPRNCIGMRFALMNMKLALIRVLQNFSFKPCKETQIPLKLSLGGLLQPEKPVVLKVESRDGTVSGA

Row | Mean plasma concentration of TAC ([1]; TAC 3 mg/kg co-administered with PRE 800 mg/kg, multiple-dose study) | AUC0-12 of TAC ([1]; TAC 3 mg/kg co-administered with PRE 100, 200, 400, 800 mg/kg) | Average plasma concentration of TAC ([1]; TAC 3 mg/kg co-administered with PRE 100 to 400 mg/kg, multiple-dose study) | t1/2 of TAC ([1]; TAC 3 mg/kg co-administered with PRE varied doses) | AUC0-inf of TAC ([1]; TAC 3 mg/kg p.o. alone) | Cmax ([1]; Wistar, po, TAC 3 mg/kg p.o. alone, rat plasma) | Tmax ([1]; Wistar, rat, plasma, po, TAC 3 mg/kg p.o. alone) | half-life ([1]; Wistar, rat, plasma, po, TAC 3 mg/kg p.o. alone, read-out: t1/2 of TAC (converted)) | SMILES | inhibition at 50 µM (CYP3A4; human, probe kit CYP3A4 substrate metabolised to resorufin (not named), Concentration 50 (unit inferred), read-out: % Relative Inhibition) | inhibition at 100 µM (CYP3A4; human, probe kit CYP3A4 substrate metabolised to resorufin (not named), Concentration 100 (unit inferred), read-out: % Relative Inhibition) | inhibition at 150 µM (CYP3A4; [2]) | inhibition at 200 µM (CYP3A4; [2]) | inhibition at 250 µM (CYP3A4; human, probe kit CYP3A4 substrate metabolised to resorufin (not named), Concentration 250 (unit inferred), read-out: % Relative Inhibition) | inhibition at 300 µM (CYP3A4; human, probe kit CYP3A4 substrate metabolised to resorufin (not named), Concentration 300 (unit inferred), read-out: % Relative Inhibition) | CYP3A4 inhibitory activity (CYP3A4; varied concentrations)
1 | – | – | – | – | – | – | – | – | O=C1O[C@H]2[C@@H]3OC(=O)c4cc(O)c(O)c(O)c4-c4c(O)c(O)c5oc(=O)c6c(c(O)c(O)c7oc(=O)c4c5c76)-c4c(cc(O)c(O)c4O)C(=O)OC[C@H]3OC(O)[C@@H]2OC(=O)c2cc(O)c(O)c(O)c2-c2c1cc(O)c(O)c2O (mixture of isomers) [Punicalagin] | 89.1% | 76.2% | 64.5% | 52.5% | 35.2% | 11.4% | exhibits CYP3A4 inhibitory activity
2 | – | – | – | – | – | – | – | – | CC(=O)N1CCN(c2ccc(OCC3COC(Cn4ccnc4)(c4ccc(Cl)cc4Cl)O3)cc2)CC1 (centres unmarked) [Ketoconazole] | – | – | 72.5% | 55% | – | – | –
3 | does not increase | increased with an increase in PRE doses | increases with an increase in PRE dose | prolonged | 61.91 ± 17.37 ngh/ml | 9.03 ± 1.21 ng/mL | 54.6 ± 10.8 min | 7.2 ± 2.4 min | C=CC[C@@H]1/C=C(\C)C[C@H](C)C[C@H](OC)[C@H]2O[C@@](O)(C(=O)C(=O)N3CCCC[C@H]3C(=O)O[C@H](/C(C)=C/[C@@H]3CC[C@@H](O)[C@H](OC)C3)[C@H](C)[C@@H](O)CC1=O)[C@H](C)C[C@@H]2OC [TAC, Tacrolimus] | – | – | – | – | – | – | –

Source: PMC10154516, “Potential profound fluctuation in tacrolimus concentration on consumption of pomegranate rind extract: A Pharmacokinetic Experiment” (Frontiers in Pharmacology, 2023)
